Test results reported in patent US7612056B2, “Substituted diaza-spiro-[4.5]-decane derivatives and their use as neurokinin antagonists” (Jenssen Pharmaceutica N.V., priority 2005, dated 2009).

Tests used:
[1] = target: NK1 (Homo sapiens, UniProt P25103); test: Signal transduction (ST), intracellular Ca++ (FLIPR), NK1; type: cell-based; conditions: antagonist, Ca++ transient peak, read-out: pIC50 NK1 (converted)
Method: This test evaluates in vitro functional NK1 antagonistic activity. For the measurements of intracellular Ca^++ concentrations the cells were grown on 96-well (black wall/transparent bottom) plates from Costar for 2 days until they reached confluence. The cells were loaded with 2 μM Fluo3 in DMEM containing 0.1% BSA and 2.5 mM probenecid for 1 h at 37° C. They were washed 3× with a Krebs buffer (140 mM NaCl, 1 mM MgCl2×6H2O, 5 mM KCl, 10 mM glucose, 5 mM HEPES; 1.25 mM CaCl2; pH 7.4) containing 2.5 mM probenecid and 0.1% BSA (Ca^++-buffer). The cells were preincubated with a concentration range of antagonists for 20 min at RT and Ca^++-signals after addition of the agonists were measured in a Fluorescence Image Plate Reader (FLIPR from Molecular Devices, Crawley, England). The peak of the Ca^++-transient was considered as the relevant signal and the mean values of corresponding wells were analysed as described below.
The sigmoidal dose response curves were analysed by computerised curve-fitting, using the GraphPad Program. The EC50-value of a compound is the effective dose showing 50% of maximal effect. For mean curves the response to the agonist with the highest potency was normalised to 100%. For antagonist responses the IC50-value was calculated using non-linear regression. […]

[2] = target: T1, NK3 (Homo sapiens, UniProt P29371); test: Signal transduction (ST), intracellular Ca++ (FLIPR), NK3; type: cell-based; conditions: antagonist, Ca++ transient peak, read-out: pIC50 NK3 (converted)
T1 sequence (P29371 1-465): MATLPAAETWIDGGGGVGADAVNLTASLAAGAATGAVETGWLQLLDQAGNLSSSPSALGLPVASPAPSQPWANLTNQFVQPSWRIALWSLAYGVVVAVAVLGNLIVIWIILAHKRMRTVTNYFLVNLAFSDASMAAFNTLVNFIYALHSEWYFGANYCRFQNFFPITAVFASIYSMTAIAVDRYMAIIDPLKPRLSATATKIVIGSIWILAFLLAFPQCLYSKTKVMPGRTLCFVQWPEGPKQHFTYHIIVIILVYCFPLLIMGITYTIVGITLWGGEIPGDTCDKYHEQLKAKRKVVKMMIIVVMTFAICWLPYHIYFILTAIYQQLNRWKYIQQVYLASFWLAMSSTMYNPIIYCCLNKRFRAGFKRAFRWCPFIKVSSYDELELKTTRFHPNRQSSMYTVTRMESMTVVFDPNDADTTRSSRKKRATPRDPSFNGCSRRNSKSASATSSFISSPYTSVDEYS

[3] = target: T2, NK2 (Homo sapiens, UniProt P21452); test: Signal transduction (ST), intracellular Ca++ (FLIPR), NK2; type: cell-based; conditions: antagonist, Ca++ transient peak, read-out: pIC50 NK2 (converted)
T2 sequence (P21452 1-398): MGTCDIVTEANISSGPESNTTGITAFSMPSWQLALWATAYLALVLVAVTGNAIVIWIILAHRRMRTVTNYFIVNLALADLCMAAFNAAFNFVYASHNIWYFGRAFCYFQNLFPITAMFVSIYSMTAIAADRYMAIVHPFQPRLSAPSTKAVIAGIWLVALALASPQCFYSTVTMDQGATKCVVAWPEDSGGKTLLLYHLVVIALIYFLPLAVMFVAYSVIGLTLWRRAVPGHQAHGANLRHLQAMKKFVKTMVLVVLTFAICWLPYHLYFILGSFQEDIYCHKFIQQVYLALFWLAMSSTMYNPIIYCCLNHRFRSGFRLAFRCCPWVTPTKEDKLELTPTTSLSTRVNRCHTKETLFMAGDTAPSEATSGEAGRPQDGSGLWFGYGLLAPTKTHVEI

NK1, sequence (P25103 whole entry): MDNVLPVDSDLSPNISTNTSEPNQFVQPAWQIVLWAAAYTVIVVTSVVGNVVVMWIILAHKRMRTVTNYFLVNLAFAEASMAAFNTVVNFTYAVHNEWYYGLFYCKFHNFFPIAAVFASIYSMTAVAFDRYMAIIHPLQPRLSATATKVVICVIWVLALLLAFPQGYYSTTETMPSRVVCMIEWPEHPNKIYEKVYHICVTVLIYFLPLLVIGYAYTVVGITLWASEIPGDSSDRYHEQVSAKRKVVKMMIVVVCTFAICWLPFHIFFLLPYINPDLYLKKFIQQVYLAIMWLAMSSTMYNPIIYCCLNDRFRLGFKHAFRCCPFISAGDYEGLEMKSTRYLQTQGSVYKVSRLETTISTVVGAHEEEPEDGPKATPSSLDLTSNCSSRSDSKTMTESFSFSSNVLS

IC50 [1] [µM]	IC50 [2] [µM]	melting point [°C]	IC50 [3] [µM]	SMILES
0.0537	> 10	160		O=C(C1CC1)N1CCC2(CC1)CCN(C1CCN(C(=O)c3cc(C(F)(F)F)cc(C(F)(F)F)c3)C(Cc3ccccc3)C1)C2 (stereo not drawn) [Compound 6]
0.178	3.31		7.59	O=C(c1ccoc1)N1CCC2(CCN(C3CCN(C(=O)c4cc(C(F)(F)F)cc(C(F)(F)F)c4)C(Cc4ccccc4)C3)CC2)C1 (stereo not drawn) [Compound 7]
0.117	0.977		> 10	O=C(c1ccoc1)N1CCC2(CCN([C@H]3CCN(C(=O)c4cc(C(F)(F)F)cc(C(F)(F)F)c4)[C@H](Cc4ccccc4)C3)CC2)C1 [Compound 8]
0.234	> 10		9.55	O=C(c1cc(C(F)(F)F)cc(C(F)(F)F)c1)N1CCC(N2CCC3(CC2)CCN(S(=O)(=O)c2cccs2)C3)CC1Cc1ccccc1 (stereo not drawn) [Compound 9]
0.282	6.92		> 10	O=C(C1CCOC1)N1CCC2(CCN([C@@H]3CCN(C(=O)c4cc(C(F)(F)F)cc(C(F)(F)F)c4)[C@H](Cc4ccccc4)C3)CC2)C1 (stereo partly drawn) [Compound 11]
0.0759	4.27		5.13	O=C(c1ccccc1Cl)N1CCC2(CCN([C@H]3CCN(C(=O)c4cc(C(F)(F)F)cc(C(F)(F)F)c4)[C@H](Cc4ccccc4)C3)CC2)C1 [Compound 13]
0.347	> 10	152	> 10	O=C1CC2(CCN([C@H]3CCN(C(=O)c4cc(C(F)(F)F)cc(C(F)(F)F)c4)[C@H](Cc4ccccc4)C3)CC2)CN1 [Compound 21]
0.0692	> 10		4.37	O=C1CC2(CCN([C@H]3CCN(C(=O)c4cc(C(F)(F)F)cc(C(F)(F)F)c4)[C@H](Cc4ccccc4)C3)CC2)CN1CC1CC1 [Compound 23]
0.126	5.25		2.04	O=C1CC2(CCN([C@@H]3CCN(C(=O)c4cc(C(F)(F)F)cc(C(F)(F)F)c4)[C@H](Cc4ccccc4)C3)CC2)CN1CC1CC1 [Compound 24]
0.0316	6.92		5.5	O=C1CC2(CCN(C3CCN(C(=O)c4cc(C(F)(F)F)cc(C(F)(F)F)c4)C(Cc4ccccc4)C3)CC2)CN1CC1CCCO1 (stereo not drawn) [Compound 25]
0.0537	> 10		3.98	O=C1CC2(CCN([C@H]3CCN(C(=O)c4cc(C(F)(F)F)cc(C(F)(F)F)c4)[C@H](Cc4ccccc4)C3)CC2)CN1Cc1ccoc1 [Compound 26]
0.117	8.13		1.91	O=C1CC2(CCN([C@@H]3CCN(C(=O)c4cc(C(F)(F)F)cc(C(F)(F)F)c4)[C@H](Cc4ccccc4)C3)CC2)CN1Cc1ccoc1 [Compound 27]
0.145	10.2		7.59	Cc1ccccc1CN1CC2(CCN([C@H]3CCN(C(=O)c4cc(C(F)(F)F)cc(C(F)(F)F)c4)[C@H](Cc4ccccc4)C3)CC2)CC1=O [Compound 28]
0.102	> 10		5.25	O=C1CC2(CCN([C@H]3CCN(C(=O)c4cc(C(F)(F)F)cc(C(F)(F)F)c4)[C@H](Cc4ccccc4)C3)CC2)CN1Cc1ccsc1 [Compound 29]
0.302	> 10		0.813	O=C1CC2(CCN([C@@H]3CCN(C(=O)c4cc(C(F)(F)F)cc(C(F)(F)F)c4)[C@H](Cc4ccccc4)C3)CC2)CN1Cc1ccsc1 [Compound 30]
0.0724	11		2.24	O=C1CC2(CCN([C@@H]3CCN(C(=O)c4cc(C(F)(F)F)cc(C(F)(F)F)c4)[C@H](Cc4ccccc4)C3)CC2)CN1Cc1ccccc1 [Compound 31]
0.269	8.32		10.5	Cc1ccccc1CN1CC2(CCN([C@@H]3CCN(C(=O)c4cc(C(F)(F)F)cc(C(F)(F)F)c4)[C@H](Cc4ccccc4)C3)CC2)CC1=O [Compound 32]
0.191	9.12		9.55	O=C1CC2(CCN([C@@H]3CCN(C(=O)c4cc(C(F)(F)F)cc(C(F)(F)F)c4)[C@H](Cc4ccccc4)C3)CC2)CN1Cc1ccccc1F [Compound 33]
0.0692	> 10		4.47	O=C1CC2(CCN([C@H]3CCN(C(=O)c4cc(C(F)(F)F)cc(C(F)(F)F)c4)[C@H](Cc4ccccc4)C3)CC2)CN1Cc1ccccc1Cl [Compound 34]
0.182	9.55		9.12	O=C1CC2(CCN([C@@H]3CCN(C(=O)c4cc(C(F)(F)F)cc(C(F)(F)F)c4)[C@H](Cc4ccccc4)C3)CC2)CN1Cc1ccccc1Cl [Compound 35]
0.135	> 10		> 10	CS(=O)(=O)N1CC2(CCN([C@H]3CCN(C(=O)c4cc(C(F)(F)F)cc(C(F)(F)F)c4)[C@H](Cc4ccccc4)C3)CC2)c2ccccc21 [Compound 39]
0.204			2.04	O=C(c1cc(C(F)(F)F)cc(C(F)(F)F)c1)N1CC[C@H](N2CCCC3(CCCN3C(=O)C3CC3)C2)C[C@H]1Cc1ccccc1 (stereo partly drawn) [Compound 46]
0.234	> 10		3.63	O=C(c1cc(C(F)(F)F)cc(C(F)(F)F)c1)N1CC[C@H](N2CCCC3(CCCN3C(=O)c3ccoc3)C2)C[C@H]1Cc1ccccc1 (stereo partly drawn) [Compound 48]

SMILES	IC50 [1] [µM]	IC50 [2] [µM]	melting point [°C]	IC50 [3] [µM]
O=C(C1CC1)N1CC2(CCN([C@H]3CCN(C(=O)c4cc(C(F)(F)F)cc(C(F)(F)F)c4)[C@H](Cc4ccccc4)C3)CC2)c2ccccc21 [Compound 37]	0.302	6.76		> 10
